How the values were obtained:
[1] = molecular target: Sodium-dependent noradrenaline transporter (Homo sapiens, UniProt P23975)
Cynomolgus monkey [2] = assay: Ratio of drug level in cerebellum to locus coreuleus in cynomolgus monkey at 1.35 mCi after 93 mins; format: ADME, organism-based, Macaca fascicularis; conditions: in vivo, 1.55 h
Brain [3] = assay: Drug uptake in cynomolgus monkey brain assessed as radio activity at 1.35 mCi after 24 mins; format: ADME, tissue-based, Macaca fascicularis; conditions: in vivo, 0.4 h
Cynomolgus monkey [4] = assay: Ratio of drug level in cerebellum to thalamus in cynomolgus monkey at 1.35 mCi after 93 mins; format: ADME, organism-based, Macaca fascicularis; conditions: in vivo, 1.55 h
Cynomolgus monkey [5] = assay: Ratio of drug level in cerebellum to occipital cortex in cynomolgus monkey at 1.35 mCi after 93 mins; format: ADME, organism-based, Macaca fascicularis; conditions: in vivo, 1.55 h
Brain [6] = assay: Drug uptake in cynomolgus monkey brain assessed as radio activity at 1.35 mCi after 42 mins; format: ADME, tissue-based, Macaca fascicularis; conditions: in vivo, 0.7 h
Cynomolgus monkey [7] = assay: Ratio of drug level in cerebellum to mesencephalon in cynomolgus monkey at 1.35 mCi after 93 mins; format: ADME, organism-based, Macaca fascicularis; conditions: in vivo, 1.55 h
Cynomolgus monkey [8] = assay: Ratio of drug level in cerebellum to striatum in cynomolgus monkey at 1.35 mCi after 93 mins; format: ADME, organism-based, Macaca fascicularis; conditions: in vivo, 1.55 h
Cynomolgus monkey [9] = assay: Ratio of drug level in striatum to cerebellum in cynomolgus monkey at 1.41 mCi after 93 mins; format: ADME, organism-based, Macaca fascicularis; conditions: in vivo, 1.55 h
Cynomolgus monkey [10] = assay: Ratio of drug level in striatum to thalamus in cynomolgus monkey at 1.41 mCi after 93 mins; format: ADME, organism-based, Macaca fascicularis; conditions: in vivo, 1.55 h
Cynomolgus monkey [11] = assay: Ratio of drug level in striatum to lower brainstem in cynomolgus monkey at 1.41 mCi after 93 mins; format: ADME, organism-based, Macaca fascicularis; conditions: in vivo, 1.55 h
Cynomolgus monkey [12] = assay: Ratio of drug level in striatum to occipital cortex in cynomolgus monkey at 1.41 mCi after 93 mins; format: ADME, organism-based, Macaca fascicularis; conditions: in vivo, 1.55 h
Cynomolgus monkey [13] = assay: Ratio of drug level in NET-rich thalamus to NET-poor striatum in cynomolgus monkey; format: ADME, organism-based, Macaca fascicularis; conditions: in vivo
Brain [14] = assay: Drug uptake in cynomolgus monkey brain assessed as radio activity at 1.41 mCi after 80 mins; format: ADME, tissue-based, Macaca fascicularis; conditions: in vivo
Cynomolgus monkey [15] = assay: Ratio of drug level in striatum to mesencephalon in cynomolgus monkey at 1.41 mCi after 93 mins; format: ADME, organism-based, Macaca fascicularis; conditions: in vivo, 1.55 h
Cynomolgus monkey [16] = assay: Ratio of drug level in thalamus to striatum in cynomolgus monkey; format: ADME, organism-based, Macaca fascicularis; conditions: in vivo

Sequence of Sodium-dependent noradrenaline transporter (P23975 whole entry): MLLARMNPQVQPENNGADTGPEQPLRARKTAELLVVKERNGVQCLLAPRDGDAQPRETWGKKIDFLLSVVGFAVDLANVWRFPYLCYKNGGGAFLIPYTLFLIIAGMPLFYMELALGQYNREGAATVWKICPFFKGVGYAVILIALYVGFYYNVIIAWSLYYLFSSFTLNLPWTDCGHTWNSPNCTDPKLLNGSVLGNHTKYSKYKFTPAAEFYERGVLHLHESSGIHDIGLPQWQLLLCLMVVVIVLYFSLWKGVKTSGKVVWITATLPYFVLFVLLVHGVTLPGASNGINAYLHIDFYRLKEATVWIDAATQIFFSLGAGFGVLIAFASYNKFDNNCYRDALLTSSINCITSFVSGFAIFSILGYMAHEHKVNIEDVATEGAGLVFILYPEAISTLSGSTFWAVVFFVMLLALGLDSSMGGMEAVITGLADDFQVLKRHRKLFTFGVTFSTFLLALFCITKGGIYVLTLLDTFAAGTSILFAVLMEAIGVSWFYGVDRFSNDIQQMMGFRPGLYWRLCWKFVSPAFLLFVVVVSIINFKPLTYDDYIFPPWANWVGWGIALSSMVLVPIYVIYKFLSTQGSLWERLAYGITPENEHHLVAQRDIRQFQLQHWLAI

`CNC[C@@H](O)CN1c2ccccc2CCc2ccccc21` showed a Ki [1] of 8.29 nM.
`[11CH3]Oc1ccc(F)cc1C[C@](O)(C1CCCC1)[C@@H]1CNCCO1` showed a Ratio (Cynomolgus monkey [2]) of 1.3, a Drug uptake (Brain [3]) of 3.5 %ID and a Ratio (Cynomolgus monkey [4]) of 1.35. It also gave a Ratio (Cynomolgus monkey [5]) of 1.3, a Ratio (Brain [6]) of 3.5 %ID and a Ratio (Cynomolgus monkey [7]) of 1.2. It also gave a Ratio (Cynomolgus monkey [8]) of 1.2.
With `COc1ccccc1O[C@@H](c1ccccc1)[C@@H]1CNCCO1` the Ki [1] was 7.93 nM.
For `[11CH3]NC[C@@H](O)CN1c2ccccc2CCc2ccccc21`, the Ratio (Cynomolgus monkey [9]) was 1, the Ratio (Cynomolgus monkey [10]) was 1.35 and the Ratio (Cynomolgus monkey [11]) was 1.2. The Ratio (Cynomolgus monkey [12]) was 1.35, the Ratio (Cynomolgus monkey [13]) was 1.35 and the Drug uptake (Brain [14]) was 1.1 %ID. The Ratio (Cynomolgus monkey [15]) was 1.2.
`[11CH3]NC[C@@H](O)CC12CCC(c3ccccc31)c1ccccc12` was tested, and the Ratio (Cynomolgus monkey [16]) was 1.5.
With `COc1ccc(F)cc1C[C@](O)(C1CCCC1)[C@@H]1CNCCO1` the Ki [1] was 10.8 nM.
